The data set is described as follows: Stability of mixed skin care composition (base + booster compositions). It is filed as physicochemical. Particulars: combination results in incompatible pH and separation of phases. The protocol:
Referring again to FIG. 2, after the ingredient is determined, a compatibility profile is determined corresponding to the previously selected ingredients (step 207). The compatibility profile includes an inclusion or exclusion of additional ingredients to the formulation. That is, the compatibility profile provides acceptable combinations of booster composition and base composition combinations made with the previously selected ingredients that forms stable and efficacious skin care compositions. […] “Stable”, “Stability” and grammatical variations thereof, indicate a macroscopic homogeneous substance that doesn't have variation in texture or varying phases physically noticeable. In addition, microscopically the emulsion of the composition has the appearance of being homogeneous with the droplets and no dynamic changes in the microscope image. […] In addition, compatibility may include ingredients that retain efficacy of individual ingredients when combined with the other ingredients remain present in the formula over time periods and exposures to varying temperature.
Examples and comparative examples below are provided by the cosmetic dispending system as shown and described above. TABLE 3 includes the composition of Base B, the hydroalcoholic base, according to an embodiment of the disclosure.

`CC1=C(/C=C/C(C)=C/C=C/C(C)=C/CO)C(C)(C)CCC1` [retinol]: the “compatibility with hydroalcoholic base” value was “not compatible”.

Values taken from patent publication US11944702B2, “Skin care composition and method of making a skin care composition” (L'OREAL, priority 2017, dated 2024).
